# Reference: patent publication US9340600B2 (Indiana University Research and Technology Corporation, priority 2012, dated 2016)
# *1 amine or outer side, *2 acyl side, *3 side chain or, on linkers, in order; H or OH if unused. Where a SMILES comes first, the peptide text is derived from it. Side-chain parts run from the residue outwards. [ ]: non-standard residue; d: D form. The star is where a group is joined. γGlu = O=C(O)[C@H](CCC(=O)[*:2])N[*:1]; Palmitoyl = CCCCCCCCCCCCCCCC(=O)*; hSer = N[C@@H](CCO)C(=O)O; Nva = CCC[C@H](N)C(=O)O; Aib = CC(C)(N)C(=O)O
# Tests used:
# glucagon receptor = molecular target: T1, glucagon receptor (Homo sapiens, UniProt P47871); assay: cAMP induction, firefly luciferase-based reporter assay in HEK293 cells co-transfected with glucagon receptor; format: cell-based; conditions: EC50 at Glucagon Receptor
# T1 construct: expressed in transfected cells; host or cells: HEK293
# Excerpt: (§1) This example describes an exemplary method of testing the biological activity of the peptides of the present disclosures, which method involves assaying cAMP synthesis.
# GLP-1 receptor = molecular target: T2, GLP-1 receptor (Homo sapiens, UniProt P43220); assay: cAMP induction, firefly luciferase-based reporter assay in HEK293 cells co-transfected with GLP-1 receptor; format: cell-based; conditions: EC50 at GLP-1 Receptor
# T2 construct: expressed in transfected cells; host or cells: HEK293
# Excerpt: as §1
# GIP receptor [1] = molecular target: T3, GIP receptor (Homo sapiens, UniProt P48546); assay: cAMP induction, firefly luciferase-based reporter assay in HEK293 cells co-transfected with GIP receptor; format: cell-based; conditions: EC50 at GIP Receptor
# T3 construct: expressed in transfected cells; host or cells: HEK293
# T3 sequence (P48546 22-466): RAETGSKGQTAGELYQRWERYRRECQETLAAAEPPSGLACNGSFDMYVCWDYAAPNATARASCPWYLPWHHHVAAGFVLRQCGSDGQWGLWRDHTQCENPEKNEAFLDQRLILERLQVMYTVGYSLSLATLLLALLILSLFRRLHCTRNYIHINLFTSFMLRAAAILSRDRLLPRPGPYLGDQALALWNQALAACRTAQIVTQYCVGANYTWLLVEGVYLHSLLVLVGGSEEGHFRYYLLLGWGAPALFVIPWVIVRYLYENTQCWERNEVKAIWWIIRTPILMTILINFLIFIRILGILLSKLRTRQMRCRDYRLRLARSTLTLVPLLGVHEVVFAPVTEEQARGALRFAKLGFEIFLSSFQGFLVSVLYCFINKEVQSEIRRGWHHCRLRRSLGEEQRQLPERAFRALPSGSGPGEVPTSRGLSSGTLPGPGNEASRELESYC
# Excerpt: as §1
# GIP receptor [2] = molecular target: T3, GIP receptor; conditions: cited from earlier work
# [3] = Table 4, analogs of SEQ ID NO: 43 varying at position 3
# [4] = Table 5, analogs of SEQ ID NO: 10
# T2 sequence (P43220 24-463): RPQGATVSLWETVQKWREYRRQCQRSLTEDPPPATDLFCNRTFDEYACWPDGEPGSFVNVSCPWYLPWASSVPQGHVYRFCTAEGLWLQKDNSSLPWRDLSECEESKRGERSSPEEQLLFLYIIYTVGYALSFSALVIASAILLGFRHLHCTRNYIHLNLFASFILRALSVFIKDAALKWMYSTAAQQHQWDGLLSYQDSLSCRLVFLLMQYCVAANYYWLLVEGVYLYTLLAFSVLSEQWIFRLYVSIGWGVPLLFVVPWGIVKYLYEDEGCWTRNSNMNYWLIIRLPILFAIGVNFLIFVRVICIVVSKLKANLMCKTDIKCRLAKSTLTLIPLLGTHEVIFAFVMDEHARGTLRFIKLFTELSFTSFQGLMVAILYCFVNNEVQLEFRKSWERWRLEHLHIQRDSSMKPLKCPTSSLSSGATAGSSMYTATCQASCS
# T1 sequence (P47871 26-477): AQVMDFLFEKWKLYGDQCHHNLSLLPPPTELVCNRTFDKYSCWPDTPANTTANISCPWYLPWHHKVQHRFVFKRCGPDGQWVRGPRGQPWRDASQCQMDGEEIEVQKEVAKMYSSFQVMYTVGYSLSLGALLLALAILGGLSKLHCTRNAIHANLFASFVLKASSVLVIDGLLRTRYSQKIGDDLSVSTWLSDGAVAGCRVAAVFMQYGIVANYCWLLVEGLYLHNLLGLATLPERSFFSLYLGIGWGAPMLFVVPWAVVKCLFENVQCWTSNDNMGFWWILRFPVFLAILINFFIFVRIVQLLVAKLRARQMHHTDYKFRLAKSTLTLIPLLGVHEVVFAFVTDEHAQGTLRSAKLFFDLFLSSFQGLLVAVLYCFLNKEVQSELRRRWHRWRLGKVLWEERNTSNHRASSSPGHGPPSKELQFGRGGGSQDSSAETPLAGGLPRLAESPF
Molecule,EC50 (glucagon receptor; [3]),EC50 (GLP-1 receptor; [3]),EC50 (GIP receptor [1]; [3]),EC50 (glucagon receptor; [4]),EC50 (GLP-1 receptor; [4]),EC50 (GIP receptor [1]; [4]),activation of the GIP receptor (GIP receptor [2]),activity of native GIP at the GIP receptor (GIP receptor [2]; relative to native GIP)
CCCCCCCCCCCCCCCC(=O)N[C@@H](CCC(=O)NCCCC[C@H](NC(=O)[C@H](CC(=O)O)NC(=O)[C@H](CO)NC(=O)[C@@H](NC(=O)[C@H](Cc1ccccc1)NC(=O)[C@@H](NC(=O)CNC(=O)[C@H](CC[S+](C)[O-])NC(=O)C(C)(C)NC(=O)[C@@H](N)Cc1c[nH]cn1)[C@@H](C)O)[C@@H](C)O)C(=O)N[C@@H](CO)C(=O)N[C@@H](CCCCN)C(=O)N[C@@H](Cc1ccc(O)cc1)C(=O)N[C@@H](CC(C)C)C(=O)N[C@@H](CC(=O)O)C(=O)N[C@@H](CCC(=O)O)C(=O)N[C@@H](CCCNC(=N)N)C(=O)N[C@@H](C)C(=O)N[C@@H](C)C(=O)N[C@@H](CCC(N)=O)C(=O)N[C@@H](CC(=O)O)C(=O)N[C@@H](Cc1ccccc1)C(=O)N[C@H](C(=O)N[C@@H](CCC(N)=O)C(=O)N[C@@H](Cc1c[nH]c2ccccc12)C(=O)N[C@@H](CC(C)C)C(=O)N[C@@H](CC(C)C)C(=O)N[C@@H](CCC(=O)O)C(=O)NCC(=O)NCC(=O)N1CCC[C@H]1C(=O)N[C@@H](CO)C(=O)N[C@@H](CO)C(=O)NCC(=O)N[C@@H](C)C(=O)N1CCC[C@H]1C(=O)N1CCC[C@H]1C(=O)N1CCC[C@H]1C(=O)N[C@@H](CO)C(N)=O)C(C)C)C(=O)O (some centres unmarked) [compound 46],89 pM,3 pM,18 pM,–,–,–,–,–
CCCCCCCCCCCCCCCC(=O)N[C@@H](CCC(=O)NCCCC[C@H](NC(=O)[C@H](CC(=O)O)NC(=O)[C@H](CO)NC(=O)[C@@H](NC(=O)[C@H](Cc1ccccc1)NC(=O)[C@@H](NC(=O)CNC(=O)[C@H](CCC)NC(=O)C(C)(C)NC(=O)[C@@H](N)Cc1c[nH]cn1)[C@@H](C)O)[C@@H](C)O)C(=O)N[C@@H](CO)C(=O)N[C@@H](CCCCN)C(=O)N[C@@H](Cc1ccc(O)cc1)C(=O)N[C@@H](CC(C)C)C(=O)N[C@@H](CC(=O)O)C(=O)N[C@@H](CCC(=O)O)C(=O)N[C@@H](CCCNC(=N)N)C(=O)N[C@@H](C)C(=O)N[C@@H](C)C(=O)N[C@@H](CCC(N)=O)C(=O)N[C@@H](CC(=O)O)C(=O)N[C@@H](Cc1ccccc1)C(=O)N[C@H](C(=O)N[C@@H](CCC(N)=O)C(=O)N[C@@H](Cc1c[nH]c2ccccc12)C(=O)N[C@@H](CC(C)C)C(=O)N[C@@H](CC(C)C)C(=O)N[C@@H](CCC(=O)O)C(=O)NCC(=O)NCC(=O)N1CCC[C@H]1C(=O)N[C@@H](CO)C(=O)N[C@@H](CO)C(=O)NCC(=O)N[C@@H](C)C(=O)N1CCC[C@H]1C(=O)N1CCC[C@H]1C(=O)N1CCC[C@H]1C(=O)N[C@@H](CO)C(N)=O)C(C)C)C(=O)O [compound 47] (H-H[Aib][Nva]GTFTSDK([γGlu-Palmitoyl])SKYLDERAAQDFVQWLLEGGPSSGAPPPS-NH2),25 pM,3 pM,2 pM,–,–,–,–,–
CCCCCCCCCCCCCCCC(=O)N[C@@H](CCC(=O)NCCCC[C@H](NC(=O)[C@H](CC(=O)O)NC(=O)[C@H](CO)NC(=O)[C@@H](NC(=O)[C@H](Cc1ccccc1)NC(=O)[C@@H](NC(=O)CNC(=O)[C@H](CCO)NC(=O)C(C)(C)NC(=O)[C@@H](N)Cc1c[nH]cn1)[C@@H](C)O)[C@@H](C)O)C(=O)N[C@@H](CO)C(=O)N[C@@H](CCCCN)C(=O)N[C@@H](Cc1ccc(O)cc1)C(=O)N[C@@H](CC(C)C)C(=O)N[C@@H](CC(=O)O)C(=O)N[C@@H](CCC(=O)O)C(=O)N[C@@H](CCCNC(=N)N)C(=O)N[C@@H](C)C(=O)N[C@@H](C)C(=O)N[C@@H](CCC(N)=O)C(=O)N[C@@H](CC(=O)O)C(=O)N[C@@H](Cc1ccccc1)C(=O)N[C@H](C(=O)N[C@@H](CCC(N)=O)C(=O)N[C@@H](Cc1c[nH]c2ccccc12)C(=O)N[C@@H](CC(C)C)C(=O)N[C@@H](CC(C)C)C(=O)N[C@@H](CCC(=O)O)C(=O)NCC(=O)NCC(=O)N1CCC[C@H]1C(=O)N[C@@H](CO)C(=O)N[C@@H](CO)C(=O)NCC(=O)N[C@@H](C)C(=O)N1CCC[C@H]1C(=O)N1CCC[C@H]1C(=O)N1CCC[C@H]1C(=O)N[C@@H](CO)C(N)=O)C(C)C)C(=O)O [compound 48] (H-H[Aib][hSer]GTFTSDK([γGlu-Palmitoyl])SKYLDERAAQDFVQWLLEGGPSSGAPPPS-NH2),16 pM,3 pM,4 pM,–,–,–,–,–
CCCCCCCCCCCCCCCC(=O)N[C@@H](CCC(=O)NCCCC[C@H](NC(=O)[C@H](CC(=O)O)NC(=O)[C@H](CO)NC(=O)[C@@H](NC(=O)[C@H](Cc1ccccc1)NC(=O)[C@@H](NC(=O)CNC(=O)[C@H](CCC(N)=O)NC(=O)C(C)(C)NC(=O)[C@@H](N)Cc1c[nH]cn1)[C@@H](C)O)[C@@H](C)O)C(=O)N[C@@H](CO)C(=O)N[C@@H](CCCCN)C(=O)N[C@@H](Cc1ccc(O)cc1)C(=O)N[C@@H](CC(C)C)C(=O)N[C@@H](CC(=O)O)C(=O)N[C@@H](CCC(=O)O)C(=O)N[C@@H](CCCNC(=N)N)C(=O)N[C@@H](C)C(=O)N[C@@H](C)C(=O)N[C@@H](CCC(N)=O)C(=O)N[C@@H](CC(=O)O)C(=O)N[C@@H](Cc1ccccc1)C(=O)N[C@H](C(=O)N[C@@H](CCC(N)=O)C(=O)N[C@@H](Cc1c[nH]c2ccccc12)C(=O)N[C@@H](CC(C)C)C(=O)N[C@@H](CC(C)C)C(=O)N[C@@H](CC(=O)O)C(=O)N[C@H](C(=O)NCC(=O)N1CCC[C@H]1C(=O)N[C@@H](CO)C(=O)N[C@@H](CO)C(=O)NCC(=O)N[C@@H](C)C(=O)N1CCC[C@H]1C(=O)N1CCC[C@H]1C(=O)N1CCC[C@H]1C(=O)N[C@@H](CO)C(N)=O)C(C)C)C(C)C)C(=O)O [compound 63] (H-H[Aib]QGTFTSDK([γGlu-Palmitoyl])SKYLDERAAQDFVQWLLDVGPSSGAPPPS-NH2; N-terminus assumed),–,–,–,4 pM,3 pM,55 pM,–,–
CCCCCCCCCCCCCCCC(=O)N[C@@H](CCC(=O)NCCCC[C@H](NC(=O)[C@H](CC(=O)O)NC(=O)[C@H](CO)NC(=O)[C@@H](NC(=O)[C@H](Cc1ccccc1)NC(=O)[C@@H](NC(=O)CNC(=O)[C@H](CCC(N)=O)NC(=O)C(C)(C)NC(=O)[C@@H](N)Cc1c[nH]cn1)[C@@H](C)O)[C@@H](C)O)C(=O)N[C@@H](CO)C(=O)N[C@@H](CCCCN)C(=O)N[C@@H](Cc1ccc(O)cc1)C(=O)N[C@@H](CC(C)C)C(=O)N[C@@H](CC(=O)O)C(=O)N[C@@H](CCC(=O)O)C(=O)N[C@@H](CCCNC(=N)N)C(=O)N[C@@H](C)C(=O)N[C@@H](C)C(=O)N[C@@H](CCC(N)=O)C(=O)N[C@@H](CC(=O)O)C(=O)N[C@@H](Cc1ccccc1)C(=O)N[C@H](C(=O)N[C@@H](CCC(N)=O)C(=O)N[C@@H](Cc1c[nH]c2ccccc12)C(=O)N[C@@H](CC(C)C)C(=O)N[C@@H](CC(C)C)C(=O)N[C@@H](CC(=O)O)C(=O)N[C@@H](C)C(=O)NCC(=O)N1CCC[C@H]1C(=O)N[C@@H](CO)C(=O)N[C@@H](CO)C(=O)NCC(=O)N[C@@H](C)C(=O)N1CCC[C@H]1C(=O)N1CCC[C@H]1C(=O)N1CCC[C@H]1C(=O)N[C@@H](CO)C(N)=O)C(C)C)C(=O)O [compound 64] (H-H[Aib]QGTFTSDK([γGlu-Palmitoyl])SKYLDERAAQDFVQWLLDAGPSSGAPPPS-NH2),–,–,–,2 pM,3 pM,19 pM,–,–
CCCCCCCCCCCCCCCC(=O)N[C@@H](CCC(=O)NCCCC[C@H](NC(=O)[C@H](CC(=O)O)NC(=O)[C@H](CO)NC(=O)[C@@H](NC(=O)[C@H](Cc1ccccc1)NC(=O)[C@@H](NC(=O)CNC(=O)[C@H](CCC(N)=O)NC(=O)C(C)(C)NC(=O)[C@@H](N)Cc1c[nH]cn1)[C@@H](C)O)[C@@H](C)O)C(=O)N[C@@H](CO)C(=O)N[C@@H](CCCCN)C(=O)N[C@@H](Cc1ccc(O)cc1)C(=O)N[C@@H](CC(C)C)C(=O)N[C@@H](CC(=O)O)C(=O)N[C@@H](CCC(=O)O)C(=O)N[C@@H](CCCNC(=N)N)C(=O)N[C@@H](C)C(=O)N[C@@H](C)C(=O)N[C@@H](CCC(N)=O)C(=O)N[C@@H](CC(=O)O)C(=O)N[C@@H](Cc1ccccc1)C(=O)N[C@H](C(=O)N[C@@H](CCC(N)=O)C(=O)N[C@@H](Cc1c[nH]c2ccccc12)C(=O)N[C@@H](CC(C)C)C(=O)N[C@@H](CC(C)C)C(=O)N[C@@H](CC(=O)O)C(=O)NC(C)(C)C(=O)NCC(=O)N1CCC[C@H]1C(=O)N[C@@H](CO)C(=O)N[C@@H](CO)C(=O)NCC(=O)N[C@@H](C)C(=O)N1CCC[C@H]1C(=O)N1CCC[C@H]1C(=O)N1CCC[C@H]1C(=O)N[C@@H](CO)C(N)=O)C(C)C)C(=O)O [compound 65] (H-H[Aib]QGTFTSDK([γGlu-Palmitoyl])SKYLDERAAQDFVQWLLD[Aib]GPSSGAPPPS-NH2; N-terminus assumed),–,–,–,2 pM,3 pM,5 pM,–,–
Native glucagon: native human glucagon (SEQ ID NO: 1),–,–,–,–,–,–,does not activate the GIP receptor,~0%
